From article PMC8556085, “Antimicrobial and Antioxidant Secondary Metabolites from Trifolium baccarinii Chiov. (Fabaceae) and Their Mechanisms of Antibacterial Action” (BioMed Research International, 2021)
In brackets after ≈: the same amount, converted by molar mass.

What was measured:
[1] = DPPH free radical scavenging assay
Method: The free radical scavenging activity of extracts and compounds was evaluated according to the described method. The EC50 (μg/mL), which is the amount of sample necessary to inhibit by 50% the absorbance of free radical DPPH, was calculated. Vitamin C was used as a standard control. All the analyses were carried out in triplicate and repeated three times.

[2] = test system: methicillin-resistant Staphylococcus aureus 04 (MRSA04); test: Broth microdilution MIC/MMC; format: cell-based; settings: for MBC / MIC: Staphylococcus aureus; for MIC: MRSA04, 24 h, 37°C, read-out: MIC
Method: (§1) The antimicrobial activity was performed against five bacterial and two fungal species. The selected microorganisms were the Gram-positive (Staphylococcus aureus ATCC25923, methicillin-resistant Staphylococcus aureus 03 (MRSA03), and methicillin-resistant Staphylococcus aureus 04 (MRSA04)) and Gram-negative (Pseudomonas aeruginosa ATCC27853 and Escherichia coli S2(1)) bacteria and yeast strains of Candida albicans ATCC10231 and Cryptococcus neoformans H99. These microorganisms were taken from our laboratory collection. The fungal and bacterial strains were conserved on Sabouraud Dextrose Agar (SDA, Conda, Madrid, Spain) and nutrient agar (NA, Conda) slants, respectively.
(§2) The antimicrobial activity was investigated by determining the minimum inhibitory concentrations (MICs), minimum bactericidal concentrations (MBC), and minimum fungicidal concentrations (MFCs). MICs of extracts/compounds were monitored using the broth microdilution method. Dimethyl sulfoxide (DMSO, Fisher Chemicals) was used to dissolve the test sample to produce a stock solution that was twofold serially diluted in Mueller-Hinton broth (MHB) for bacteria and Sabouraud Dextrose Broth (SDB) for fungi to obtain a concentration range of 4096 to 0.25 μg/mL. One hundred microliters of each concentration was introduced into a well (96-well microplate) containing 90 μL of SDB or MHB and 10 μL of inoculum (at 1 × 10^6 CFU/mL for bacteria and 1 × 10^5 spores/mL for yeasts) which were added to obtain a final concentration range of 2048 to 0.125 μg/mL. Plates were covered and incubated on the shaker at 37°C, 30°C, and 30°C during 24 h, 48 h, and 72 h for bacteria, Candida albicans, and Cryptococcus neoformans, respectively. The MICs were visually assessed after the incubation period and were considered the lowest sample concentration that inhibits the growth or the visual growth of the organism.
(§3) The positive controls were oxacillin (Sigma-Aldrich, Steinheim, Germany) for bacteria and nystatin (Sigma-Aldrich, Steinheim, Germany) for yeasts, and the negative control was broth with 20 μL of DMSO. The assay was carried out in triplicate.

[3] = test system: Candida albicans ATCC10231; test: Broth microdilution MIC/MMC; format: cell-based; settings: for MFC: Candida albicans ATCC10231; for MIC: Candida albicans ATCC10231, 48 h, 30°C, read-out: MIC
Method: as §1, §2, §3

[4] = test system: methicillin-resistant Staphylococcus aureus 03 (MRSA03); test: Broth microdilution MIC/MMC; format: cell-based; settings: for MBC / MIC: Staphylococcus aureus; for MIC: MRSA03, 24 h, 37°C, read-out: MIC
Method: as §1, §2, §3

[5] = test system: Escherichia coli S2(1); test: Broth microdilution MIC/MMC; format: cell-based; settings: for MIC: 24 h, 37°C, read-out: MIC
Method: as §1, §2, §3

[6] = test system: Pseudomonas aeruginosa ATCC27853; test: Broth microdilution MIC/MMC; format: cell-based; settings: for MIC: Pseudomonas aeruginosa ATCC27853, 24 h, 37°C, read-out: MIC
Method: as §1, §2, §3

[7] = test system: Staphylococcus aureus ATCC25923; test: Broth microdilution MIC/MMC; format: cell-based; settings: for MIC: Staphylococcus aureus ATCC25923, 24 h, 37°C, read-out: MIC
Method: as §1, §2, §3

[8] = test system: Cryptococcus neoformans H99; test: Broth microdilution MIC/MMC; format: cell-based; settings: for MFC: Cryptococcus neoformans H99; for MIC: Cryptococcus neoformans H99, 72 h, 30°C, read-out: MIC
Method: as §1, §2, §3

[9] = test system: tested bacteria and yeasts; test: Broth microdilution MIC/MMC, summary over all strains; format: cell-based; settings: for antimicrobial activity class of pure compounds by cutoff points: against specific microorganism, cutoff points of ref 33; for antimicrobial activity: against the tested microorganisms; for MIC: read-out: MIC (range over the tested microorganisms)
Method: as §1, §2, §3

[10] = Gallic acid equivalent antioxidant capacity (GEAC) assay
Method: The GEAC test was performed as described previously with some slight modifications. The laccase was purified from Sclerotinia sclerotiorum according to the described protocol. 20 μL of laccase (1 mM stock solution), 20 μL of test sample, 10 μL of ABTS (2,2′-azino-bis(3-ethylbenzothiazoline-6-sulfonic acid) (74 mM stock solution), and 950 μL of acetate buffer (pH = 5.0, 100 mM) were added in a quartz cuvette. The concentrations of the samples in the assay mixture were 800, 400, 200, 100, and 10 μg/mL for the extracts and 200, 100, 50, 25, and 12.5 μg/mL for the isolated compounds. The content of the generated ABTS^●+ radical was measured at 420 nm after 240 s reaction time and was converted to gallic acid equivalents by the use of a calibration curve (Pearson's correlation coefficient: r = 0.998) constructed with 0, 4, 10, 14, 28, 56, and 84 μM gallic acid standards rather than Trolox. Experiments were done in triplicate and repeated three times with similar results.

[11] = test system: superoxide dismutase (SOD); test: Superoxide dismutase (SOD) activity in treated bacterial cell lysates; format: cell-based; settings: Staphylococcus aureus ATCC25923 and MRSA03, MIC and 1/2xMIC, 24 h
Method: (§4) (3) Antioxidant Enzyme Activities. For evaluation of catalase and superoxide dismutase (SOD) activities, Staphylococcus aureus ATCC25923 and MRSA03 (1.5 × 10^8 CFU/mL, 500 μL) cultures from the late exponential growth phase were treated with MIC and 1/2xMIC of the methanol extract (500 μL), compound 5 (500 μL), and oxacillin (500 μL) solutions and incubated at 37°C for 24 h. The suspension was centrifuged at 3000 rpm for 5 min to separate the supernatant. The pellet was washed twice with PBS and resuspended in 500 μL of cell lysate buffer (1 mM EDTA, 10 Mm Tris-HCl, 0.1% Triton-X-100, and 150 mM NaCl) and incubated at 37°C for 1 h. Contents were then centrifuged at 3000 rpm for 5 min, and the supernatant was collected for enzyme activity assays.
Superoxide dismutase (SOD) activity. This was determined using a kit (Sigma, catalogue no. 19160) in the cell lysate. […] The reaction mixture was incubated in the dark at 37°C for 20 min, and the absorbance was read at 450 nm on a BioTek Synergy 2 multiplate reader. The SOD activity was calculated based on the following formula: [(ABlank1–ABlank3) − (ASample–ABlank2)/(ABlank1–ABlank3) × 100], where Blank 1 contains ultrapure water, WST solution, and enzyme solution, Blank 2 contains sample solution, WST solution, and dilution buffer, and Blank 3 contains ultrapure water, WST solution, and dilution buffer.

[12] = test system: catalase; test: Catalase activity in treated bacterial cell lysates; format: cell-based; settings: Staphylococcus aureus ATCC25923 and MRSA03, MIC and 1/2xMIC, 24 h
Method: as §4
Catalase activity. This was assessed by using a kit (Sigma, catalogue no. CAT100) with a cell lysate. Briefly, 750 μL of assay buffer (50 mM) was mixed with 25 μL of 50 mM H2O2 and 10 μL of cell lysate. […] The absorbance was monitored at 520 nm, and the catalase activity was calculated based on the following equation: [Δμ moles (H2O2) × d × 100)/V × t], where Δμ moles (H2O2) is the difference in amount of H2O2 added to the reaction mixture between blank and given samples, d is the dilution of the original sample for catalase reaction, V is the sample volume in catalase reaction, and t is the reaction duration (min).

[13] = test system: Pseudomonas aeruginosa ATCC27853; test: Bacteriolytic assay (time-kill kinetic method, OD600); format: cell-based; settings: Pseudomonas aeruginosa suspension, 2xMIC, after 240 min, compared to the 0 time value
Method: (§5) (1) Bacteriolytic Assay. […] Full growth of bacterium in MHB was diluted 100 times and incubated at 37°C to produce an OD600 of 0.8 as a starting inoculum. Sample solutions were added to the starting bacterial suspension to give a final concentration of 2xMIC and incubated at 37°C under agitation at 150 rpm. After the incubation period corresponding to 0, 15, 30, 60, 120, and 240 min, 100 μL was pipetted from each tube and the optical density was recorded at 600 nm using the Biobase UV-Vis spectrophotometer. Corresponding dilutions of test samples were used as blanks. Oxacillin was used as a positive control, and the tubes without an extract/compound served as negative controls. All the measurements were done in triplicate and repeated three times.

[14] = test system: Staphylococcus aureus ATCC25923; test: as above; format: cell-based; settings: Staphylococcus aureus ATCC25923 suspension, 2xMIC, after 240 min, compared to the 0 time value
Method: as §5

[15] = test system: red blood cells (RBCs); format: cell-based, Wistar rats (Rattus norvegicus)
Method: Wistar rats (Rattus norvegicus) aged 10–12 weeks and weighing 220 to 250 g were randomly selected from our colony. Efforts were also made to minimize animal suffering and to reduce the number of animals used in the experiment. Intraperitoneal injection of the mixture of ketamine (50 mg/kg body weight, BW) and xylazine (10 mg/kg BW) was used to anaesthetize the rats in a dose that is commonly used for operation purposes. And subsequently, the unconscious animals were quickly operated on and the whole blood (10 mL) was collected by cardiac puncture into a conical tube containing Ethylenediaminetetraacetic Acid (EDTA) as an anticoagulant. Red blood cells were harvested by centrifugation at room temperature for 10 min at 1,000 × g and were washed three times in PBS buffer^23. The haemolysis assay was evaluated as previously described.

[16] = Pseudomonas aeruginosa ATCC27853
[17] = Staphylococcus aureus ATCC25923

OC[C@@H](O)[C@@H](O)[C@H](O)[C@H](O)CO [compound 9, D-mannitol]
activity in DPPH assay [1]: inactive
MBC ([2]; MRSA04): > 256 µg/mL
MIC [2]: > 256 µg/mL
MFC [3]: > 256 µg/mL
MIC [3]: > 256 µg/mL
MBC ([4]; MRSA03): > 256 µg/mL
MIC [4]: > 256 µg/mL
MBC [5]: > 256 µg/mL
MIC [5]: 128 µg/mL (≈ 703 µM)
MBC [6, 16]: > 256 µg/mL
MIC [6]: 256 µg/mL (≈ 1410 µM)
MBC [7, 17]: > 256 µg/mL
MIC [7]: 128 µg/mL (≈ 703 µM)
MFC [8]: > 256 µg/mL
MIC [8]: 256 µg/mL (≈ 1410 µM)
antimicrobial activity class of pure compounds by cutoff points [9]: low/not active
antimicrobial activity [9]: low activity
MIC [9]: ≥ 128 µg/mL
activity in TEAC assay [10]: inactive

CC1(C)CC(O)C2(C)CCC3(C)C(=CCC4C5(C)CCC(OC6OC(C(=O)O)C(O)C(O)C6O)C(C)(CO)C5CCC43C)C2C1 [compound 10, 3-O-β-D-glucuronopyranosylsoyasapogenol B]
activity in DPPH assay [1]: inactive
MBC ([2]; MRSA04): > 256 µg/mL
MIC [2]: > 256 µg/mL
MFC [3]: > 256 µg/mL
MIC [3]: > 256 µg/mL
MBC ([4]; MRSA03): > 256 µg/mL
MIC [4]: > 256 µg/mL
MBC [5]: > 256 µg/mL
MIC [5]: 256 µg/mL (≈ 403 µM)
MBC [6, 16]: > 256 µg/mL
MIC [6]: 256 µg/mL (≈ 403 µM)
MBC [7, 17]: > 256 µg/mL
MIC [7]: 256 µg/mL (≈ 403 µM)
MFC [8]: > 256 µg/mL
MIC [8]: 256 µg/mL (≈ 403 µM)
antimicrobial activity class of pure compounds by cutoff points [9]: low/not active
antimicrobial activity [9]: low activity
MIC [9]: ≥ 256 µg/mL
activity in TEAC assay [10]: inactive

Cc1onc(-c2ccccc2)c1C(=O)N[C@@H]1C(=O)N2[C@@H]1SC(C)(C)[C@@H]2C(=O)O [oxacillin, reference compound]
MMC/MIC ([2]; MRSA04): 1
MBC ([2]; MRSA04): 8 µg/mL (≈ 19.9 µM)
MIC [2]: 8 µg/mL (≈ 19.9 µM)
MMC/MIC ([4]; MRSA03): 2
MBC ([4]; MRSA03): 8 µg/mL (≈ 19.9 µM)
MIC [4]: 4 µg/mL (≈ 9.96 µM)
MBC [5]: 32 µg/mL (≈ 79.7 µM)
MMC/MIC [5]: 2
MIC [5]: 16 µg/mL (≈ 39.9 µM)
MBC [6, 16]: 2 µg/mL (≈ 4.98 µM)
MMC/MIC [6, 16]: 1
MIC [6]: 2 µg/mL (≈ 4.98 µM)
MBC [7, 17]: 1 µg/mL (≈ 2.49 µM)
MMC/MIC [7, 17]: 1
MIC [7]: 1 µg/mL (≈ 2.49 µM)
SOD activity vs untreated cell lysates [11]: significant concentration-dependent decreases
catalase activity vs untreated cell lysates [12]: significant concentration-dependent decreases
MMC/MIC (microbicidal activities) ([9]; against all the tested microorganisms): ≤ 4
decline in cell turbidity [13]: 2%
decline in cell turbidity [14]: 2%

Triton X-100
lysis of RBCs [15]: about 100%
